Here are results for 35 molecules from US11384055B2 (BIOMARIN PHARMACEUTICAL INC., priority 2017, dated 2022).

The test concerns the target T1, Human GO (Homo sapiens, UniProt Q9UJM8).
T1 construct: purchased Novus Biologicals NBP1-72412
T1 sequence (Q9UJM8 1-370): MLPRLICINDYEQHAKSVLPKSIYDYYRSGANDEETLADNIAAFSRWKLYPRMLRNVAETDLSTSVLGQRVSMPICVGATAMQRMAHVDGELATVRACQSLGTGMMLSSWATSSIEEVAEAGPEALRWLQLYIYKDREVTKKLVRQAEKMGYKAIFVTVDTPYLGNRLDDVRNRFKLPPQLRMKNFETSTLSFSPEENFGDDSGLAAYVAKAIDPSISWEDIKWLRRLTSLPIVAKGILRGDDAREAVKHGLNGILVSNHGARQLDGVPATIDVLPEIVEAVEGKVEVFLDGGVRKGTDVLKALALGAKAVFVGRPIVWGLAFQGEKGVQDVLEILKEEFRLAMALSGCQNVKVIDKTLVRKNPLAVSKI
The test can be described thus: GO enzymatic assay (coupled fluorescence/HRP assay, glycolate substrate). The test is classed as biochemical. As to conditions: Table 2; read-out: Range (range of IC50 values calculated from the enzymatic assays). In short, it runs like this: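 Coupled HRP/fluorescence read-out of glycolate oxidation by human GO in 50 mM potassium phosphate buffer (pH 7). Inhibitors added across a concentration range.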

For orientation: IC50 means the concentration at which inhibition is half-maximal. For the molecule `O=C(O)c1[nH]nnc1-c1cc2cc(OC(F)(F)F)ccc2cn1` [Compound 211, 4-(6-(trifluoromethoxy)isoquinolin-3-yl)-1H-1,2,3-triazole-carboxylic acid], the IC50 is 1000 to 10000 nM.

For the molecule `O=C(O)c1[nH]nnc1-c1ccc2c(n1)CCCC2` [Compound 212, 4-(5,6,7,8-tetrahydroquinolin-2-yl)-1H-1,2,3-triazole-5-carboxylic acid], the IC50 is 1000 to 10000 nM.

As to `O=C(O)c1[nH]nnc1-c1cc2cc(F)ccc2cn1` [Compound 213, 4-(6-fluoroisoquinolin-3-yl)-1H-1,2,3-triazole-5-carboxylic acid 2,2,2-trifluoroacetate], the IC50 is 1000 to 10000 nM.

For `O=C(O)c1[nH]nnc1-c1cc2ccc(OC(F)(F)F)cc2cn1` [Compound 214, 4-(7-(trifluoromethoxy)isoquinolin-3-yl)-1H-1,2,3-triazole-5-carboxylic acid], the IC50 is 100 to 1000 nM.

`O=C(O)c1[nH]nnc1-c1cc2ccc(C(F)(F)F)cc2cn1` [Compound 215, 4-(7-(trifluoromethyl)isoquinolin-3-yl)-1H-1,2,3-triazole-5-carboxylic acid]: the 50% inhibitory concentration (IC50) is 100 to 1000 nM.

Regarding `O=C(O)c1[nH]nnc1-c1cnc2cc(Cl)ccc2c1` [Compound 216, 4-(7-chloroquinolin-3-yl)-1H-1,2,3-triazole-5-carboxylic acid 2,2,2-trifluoroacetate], the IC50 was less than 100 nM.

Consider `O=C(O)c1[nH]nnc1-c1cc(Cl)cc(OCC2CC2)c1` [Compound 217, 4-(3-chloro-5-(cyclopropylmethoxy)phenyl)-1H-1,2,3-triazole-5-carboxylic acid 2,2,2-trifluoroacetate], for which the half-inhibitory concentration (IC50) is less than 100 nM.

For `O=C(O)c1[nH]nnc1-c1ccc(Cl)c(OCC2CC2)c1` [Compound 218, 4-(4-chloro-3-(cyclopropylmethoxy)phenyl)-1H-1,2,3-triazole-5-carboxylic acid], the IC50 is 100 to 1000 nM.

Turning to `O=C(O)c1[nH]nnc1-c1cc(OCC2CC2)ccc1Cl` [Compound 219, 4-(2-chloro-5-(cyclopropylmethoxy)phenyl)-1H-1,2,3-triazole-5-carboxylic acid], the concentration for half-maximal inhibition (IC50) is 1000 to 10000 nM.

As for `O=C(O)c1[nH]nnc1Oc1ccc(-c2cccc(N3CCCCC3)c2)cc1` [Compound 220, 4-((3′-(piperidin-1-yl)-[1,1′-biphenyl]-4-yl)oxy)-1H-1,2,3-triazole-5-carboxylic acid 2,2,2-trifluoroacetate], the IC50 was less than 100 nM.

Consider `O=C(O)c1[nH]nnc1Oc1ccc(-c2ccc(N3CCCCC3)cc2)cc1` [Compound 221, 4-((4′-(piperidin-1-yl)-[1,1′-biphenyl]-4-yl)oxy)-1H-1,2,3-triazole-5-carboxylic acid 2,2,2-trifluoroacetate], for which the 50% inhibitory concentration (IC50) was less than 100 nM.

With `CN1CCCc2cc(-c3ccc(Oc4nn[nH]c4C(=O)O)cc3)ccc21` [Compound 222, 4-(4-(1-methyl-1,2,3,4-tetrahydroquinolin-6-yl)phenoxy)-1H-1,2,3-triazole-5-carboxylic acid], the IC50 is less than 100 nM.

In the case of `O=C(O)c1[nH]nnc1Oc1ccc(-c2cccc3c2CCCC3)cc1` [Compound 223, 4-(4-(5,6,7,8-tetrahydronaphthalen-1-yl)phenoxy)-1H-1,2,3-triazole-5-carboxylic acid 2,2,2-trifluoroacetate], the IC50 was less than 100 nM.

For the molecule `O=C(O)c1[nH]nnc1Oc1ccc(-c2cccc(CN3CCCCC3=O)c2)cc1` [Compound 224, 4-((3′-((2-oxopiperidin-1-yl)methyl)-[1,1′-biphenyl]-4-yl)oxy)-1H-1,2,3-triazole-5-carboxylic acid], the IC50 is less than 100 nM.

With `N#Cc1ccc(-c2ccc(Oc3nn[nH]c3C(=O)O)cc2)cc1` [Compound 225, 4-((4′-cyano-[1,1′-biphenyl]-4-yl)oxy)-1H-1,2,3-triazole-5-carboxylic acid], the IC50 is less than 100 nM.

In the case of `CC(C)N1CCc2ccc(Oc3nn[nH]c3C(=O)O)cc2C1` [Compound 226, 4-((2-isopropyl-1,2,3,4-tetrahydroisoquinolin-7-yl)oxy)-1H-1,2,3-triazole-5-carboxylic acid 2,2,2-trifluoroacetate], the concentration for half-maximal inhibition (IC50) is 1000 to 10000 nM.

With `O=C(O)c1[nH]nnc1OCc1ccc2cc(Cl)ccc2c1` [Compound 227, 4-((6-chloronaphthalen-2-yl)methoxy)-1H-1,2,3-triazole-5-carboxylic acid 2,2,2-trifluoroacetate], the IC50 was less than 100 nM.

On to `O=C(O)c1[nH]nnc1Oc1ccc(-c2cccc(C3CCCCC3)c2)cc1` [Compound 228, 4-((3′-cyclohexyl-[1,1′-biphenyl]-4-yl)oxy)-1H-1,2,3-triazole-5-carboxylic acid], for which the half-inhibitory concentration (IC50) is less than 100 nM.

With `O=C(O)c1c(Oc2ccc(Cl)c(Cl)c2)nnn1COC(=O)C1CCCCC1` [Compound 229, 1-(((cyclohexanecarbonyl)oxy)methyl)-4-(3,4-dichlorophenoxy)1H-1,2,3-triazole-5-carboxylic acid], the IC50 is 100 to 1000 nM.

Regarding `COCCOc1cccc(-c2ccc(Oc3nn[nH]c3C(=O)O)cc2)c1` [Compound 230, 4-((3′-(2-methoxyethoxy)-[1,1′-biphenyl]-4-yl)oxy)-1H-1,2,3-triazole-5-carboxylic acid], the IC50 was less than 100 nM.

As to `O=C(O)c1[nH]nnc1Oc1ccc2c(c1)OCCO2` [Compound 231, 4-((2,3-dihydrobenzo[b][1,4]dioxin-6-yl)oxy)-1H-1,2,3-triazole-5-carboxylic acid 2,2,2-trifluoroacetate], the IC50 is less than 100 nM.

Take `O=C(O)c1[nH]nnc1Oc1ccc(-c2cccc(OCC3CC3)c2)cc1` [Compound 232, 4-((3′-(cyclopropylmethoxy)-[1,1′-biphenyl]-4-yl)oxy)-1H-1,2,3-triazole-5-carboxylic acid]: the half-maximal inhibitory concentration (IC50) was less than 100 nM.

As for `CC(=O)N1CCN(c2cccc(-c3ccc(Oc4nn[nH]c4C(=O)O)cc3)c2)CC1` [Compound 233, 4-((3′-(4-acetylpiperazin-1-yl)-[1,1′-biphenyl]-4-yl)oxy)-1H-1,2,3-triazole-5-carboxylic acid 2,2,2-trifluoroacetate], the 50% inhibitory concentration (IC50) was less than 100 nM.

As to `COCCOc1ccc(-c2ccc(Oc3nn[nH]c3C(=O)O)cc2)cc1` [Compound 234, 4-((4′-(2-methoxyethoxy)-[1,1′-biphenyl]-4-yl)oxy)-1H-1,2,3-triazole-5-carboxylic acid], the IC50 is less than 100 nM.

As for `CC(=O)OCOC(=O)c1[nH]nnc1Oc1ccc2cc(Cl)ccc2c1` [Compound 235, acetoxymethyl 4-((6-chloronaphthalen-2-yl)oxy)-1H-1,2,3-triazole-5-carboxylate], the 50% inhibitory concentration (IC50) was less than 100 nM.

For `O=C(O)c1[nH]nnc1Oc1ccc2cc(OC(F)F)ccc2c1` [Compound 236, 4-((6-(difluoromethoxy)naphthalen-2-yl)oxy)-1H-1,2,3-triazole-5-carboxylic acid], the half-maximal inhibitory concentration (IC50) is less than 100 nM.

As for `O=C(O)c1[nH]nnc1OC1CCc2cc(F)c(F)cc2C1` (centres unmarked) [Compound 237, 4-((6,7-difluoro-1,2,3,4-tetrahydronaphthalen-2-yl)oxy)-1H-1,2,3-triazole-5-carboxylic acid], the IC50 was less than 100 nM.

Regarding `O=C(O)c1[nH]nnc1Oc1ccc(-c2cccc(C3CCOCC3)c2)cc1` [Compound 238, 4-((3′-(tetrahydro-2H-pyran-4-yl)-[1,1′-biphenyl]-4-yl)oxy)-1H-1,2,3-triazole-5-carboxylic acid 2,2,2-trifluoroacetate], the 50% inhibitory concentration (IC50) was less than 100 nM.

As for `CC(C)C(=O)OCOC(=O)c1[nH]nnc1Oc1ccc2cc(Cl)ccc2c1` [Compound 239, (isobutyryloxy)methyl 4-((6-chloronaphthalen-2-yl)oxy)-1H-1,2,3-triazole-5-carboxylate], the concentration for half-maximal inhibition (IC50) is 100 to 1000 nM.

As for `CC(C)(C)OC(=O)N1CCCCC1C(=O)OCn1nnc(Oc2ccc(Cl)c(Cl)c2)c1C(=O)O` (centres unmarked) [Compound 240, 1-(((1-(tert-butoxycarbonyl)piperidine-2-carbonyl)oxy)methyl)-4-(3,4-dichlorophenoxy)-1H-1,2,3-triazole-5-carboxylic acid], the 50% inhibitory concentration (IC50) was 1000 to 10000 nM.

Consider `O=C(O)c1[nH]nnc1OC1Cc2cc(Cl)c(Cl)cc2C1` [Compound 241, 4-((5,6-dichloro-2,3-dihydro-1H-inden-2-yl)oxy)-1H-1,2,3-triazole-5-carboxylic acid 2,2,2-trifluoroacetate], for which the IC50 is less than 100 nM.

`O=C(O)c1[nH]nnc1Oc1ccc(-c2ccc(C3CCOCC3)cc2)cc1` [Compound 242, 4-((4′-(tetrahydro-2H-pyran-4-yl)-[1,1′-biphenyl]-4-yl)oxy)-1H-1,2,3-triazole-5-carboxylic acid]: the IC50 is less than 100 nM.

In the case of `O=C(O)c1[nH]nnc1CSc1ccc(Cl)c(Cl)c1` [Compound 243, 4-(((3,4-dichlorophenyl)thio)methyl)-1H-1,2,3-triazole-5-carboxylic acid], the IC50 was less than 100 nM.

As to `CC(C)C(=O)OCOC(=O)c1[nH]nnc1Sc1ccc(-c2ccc(N3CCCCC3)cc2)cc1` [Compound 244, (isobutyryloxy)methyl 4-((4′-(piperidin-1-yl)-[1,1′-biphenyl]-4-yl)thio)-1H-1,2,3-triazole-5-carboxylate], the IC50 is 1000 to 10000 nM.

As for `CC(C)N1CCCc2ccc(Oc3nn[nH]c3C(=O)O)cc21` [Compound 245, 4-((1-isopropyl-1,2,3,4-tetrahydroquinolin-7-yl)oxy)-1H-1,2,3-triazole-5-carboxylic acid 2,2,2-trifluoroacetate], the IC50 is 1000 to 10000 nM.
